EC90 data for 44 molecules are collected here from patent US11964996B2, “2-alkynylmannose derivative and application thereof” (priority 2020, dated 2024).

This test concerns the target T1, FimH proteins (Escherichia coli, UniProt Q1R2J4).
T1 construct: endogenous in cells; host or cells: UPEC strain UTI89 (whole bacteria)
Description: hemagglutination inhibition (HAI) assay: UPEC UTI89 with guinea pig red blood cells. It is filed as cell-based, uropathogenic Escherichia coli (UPEC) UTI89. Conditions: read-out: HAI EC90 (minimum concentration for inhibiting hemagglutination). How it is done:
In the present example, the mannose derivatives A1 to A107 that were prepared in Examples 1 to 12 were analyzed in hemagglutination inhibition (HAI) assays to determine inhibitory effects of the compounds on the function/activity of FimH proteins.
1. Preparation of a guinea pig red blood cell solution: an adult guinea pig was anesthetized with ethyl ether, blood was sampled from the heart, placed in an EDTA blood collection tube, and centrifuged at 2,000 rpm for 5 min, serum was removed, the sample was transferred in a centrifuge tube (15 mL), sterilized PBS was added, the sample was centrifuged at 1,500 rpm for 10 min, a supernatant was removed, the sample was transferred in a centrifuge tube (50 mL), PBS was added, the sample was centrifuged at 1,500 rpm for 10 min and repeatedly washed twice, and red blood cells were slightly aspirated into a new centrifuge tube (50 mL) to obtain a 5% guinea pig red blood cell solution.
2. Preparation of a bacteria solution: a UPEC cell line UTI89 was inoculated on a medium plate and cultured in an incubator at 37° C. overnight. Single colonies were picked and inoculated in an LB medium in a sterilized conical flask, and cultured at 37° C. and 170 r/min overnight. When an OD value at 540 nm was about 0.8 on a microplate reader, the bacterial concentration was about 10^8-10^9 cfu/mL, the bacteria solution was centrifuged at 2,000 rpm for 10 min, a supernatant was removed, and 1 mL of bacteria solution was prepared into 0.1 mL of PBS bacteria solution. […] The bacteria and the medium were uniformly mixed by shaking, and reacted in an incubator at 25° C. for about 20-40 min. When the plate was read, the wells in which complete agglutination occurred were used as 4HAU for the hemagglutination titer of the bacteria. For example, if the endpoint titer of hemagglutination is 1:256, the dilution multiple of the 4HAU antigen is 1:64 (256 divided by 4). Bacteria solutions at corresponding concentrations were prepared according to the experimental results.
3. Activity assay: a compound to be tested or a standard product was placed in a 96-well microtest plate, 50 μL of drug at an initial concentration of 200 μM was placed in the first well, and from the second well, 25 μL of PBS was added to each well to dilute the drug in proportion. The drug and the medium in the first well were mixed, 25 μL of mixed drug solution was placed in the second well, the drug solution was diluted in sequence to the last well, and 25 μL of drug solution was removed. 25 μL of bacteria solution was placed in each well of the culture plate containing the diluted drug, and cultured at 37° C. for 40 min. 25 μL of 5% guinea pig red blood cell suspension was placed in each well, and slightly uniformly mixed with the drug, and the plate was placed at 4° C. for about 1 h. When results were determined, the plate was tilted 60°, and whether the red blood cells flowed like teardrops was observed.
Mannosyl proteins are expressed on the surface of red blood cells in a guinea pig, which can bind to FimH proteins of UTI89 to cause hemagglutination. It can be observed with the naked eyes that the red blood cells form film-like agglutination at the bottom of the well, and loose red dots can be seen in the center. The FimH protein inhibitor competitively binds to FimH proteins to inhibit hemagglutination. It can be observed with the naked eyes that all the red blood cells sink and concentrate at the bottom of the well to form dense dots. The minimum concentration for inhibiting hemagglutination is expressed as an EC90 value of a compound. The final concentration of the compound in the first well is 66700 nM, the concentration in the second well is half that in the first well, the concentration in the third well is half that in the second well, and so on. […] A low EC90 value indicates high activity of a compound.

Turning to `OC[C@H]1O[C@H](C#Cc2cnn([C@H]3CCOC3)c2)[C@](O)(C#Cc2ccccc2)[C@@H](O)[C@@H]1O` [Compound A49], the EC90 turned out to be 16 nM.

On to `OC[C@H]1O[C@H](C#Cc2cnn(-c3ccc(Cl)cc3)c2)[C@](O)(C#CC2CC2)[C@@H](O)[C@@H]1O` [Compound A72], for which the EC90 is under 0.1 nM.

For `CNC(=O)c1cccc(-c2ccc(O[C@H]3O[C@H](CO)[C@@H](O)[C@H](O)[C@@]3(O)C#Cc3ccccc3)c(C)c2)c1` [Compound A1], the EC90 was 8 nM.

In the case of `OC[C@H]1O[C@H](C#Cc2cnn(C3CCCC3)c2)[C@](O)(C#Cc2ccccc2)[C@@H](O)[C@@H]1O` [Compound A45], the EC90 was determined as 1 nM.

Consider `CCC#C[C@@]1(O)[C@@H](C#Cc2cnn(-c3ccc(Cl)cc3)c2)O[C@H](CO)[C@@H](O)[C@@H]1O` [Compound A80], for which the EC90 turned out to be 2 nM.

In the case of `OC[C@H]1O[C@H](C#Cc2cnn(-c3ccccc3)c2)[C@](O)(C#Cc2ccccc2)[C@@H](O)[C@@H]1O` [Compound A47], the EC90 stood at 0.25 nM.

On to `OC[C@H]1O[C@H](C#Cc2cnn(-c3cccc(F)c3)c2)[C@](O)(C#Cc2ccccc2)[C@@H](O)[C@@H]1O` [Compound A101], for which the EC90 stood at 0.25 nM.

In the case of `OC[C@H]1O[C@H](C#Cc2ccccc2)[C@](O)(C#Cc2cccc(C3CC3)c2)[C@@H](O)[C@@H]1O` [Compound A20], the EC90 was found to be 260 nM.

Regarding `[2H]C([2H])([2H])Oc1ccc(-n2cc(C#C[C@H]3O[C@H](CO)[C@@H](O)[C@H](O)[C@@]3(O)C#CC3CC3)cn2)cc1` [Compound A90], the EC90 was under 0.1 nM.

For the molecule `CNC(=O)c1cccc(-c2ccc(O[C@H]3O[C@H](CO)[C@@H](O)[C@H](O)[C@@]3(O)C#Cc3cnn(C)c3)c(C)c2)c1` [Compound A3], the EC90 was 16 nM.

Consider `Cc1ccc(-n2cc(C#C[C@H]3O[C@H](CO)[C@@H](O)[C@H](O)[C@@]3(O)C#CC3CC3)cn2)cc1` [Compound A94], for which the EC90 was under 0.1 nM.

On to `CS(=O)(=O)c1cccc(C#C[C@@]2(O)[C@@H](C#Cc3ccccc3)O[C@H](CO)[C@@H](O)[C@@H]2O)c1` [Compound A22], for which the EC90 was found to be 130 nM.

For `OC[C@H]1O[C@H](C#Cc2cccc3ccccc23)[C@](O)(C#Cc2ccccc2)[C@@H](O)[C@@H]1O` [Compound A29], the EC90 turned out to be 520 nM.

Regarding `CCC(CC)O[C@H]1O[C@H](CO)[C@@H](O)[C@H](O)[C@@]1(O)C#Cc1ccccc1` [Compound A9], the EC90 was 130 nM.

As to `CCC(C)O[C@H]1O[C@H](CO)[C@@H](O)[C@H](O)[C@@]1(O)C#Cc1cccc(OC)c1` (some centres unmarked) [Compound A58], the EC90 amounted to 520 nM.

With `COCCOc1ccc(-n2cc(C#C[C@H]3O[C@H](CO)[C@@H](O)[C@H](O)[C@@]3(O)C#CC3CC3)cn2)cc1` [Compound A98], the EC90 is under 0.1 nM.

In the case of `OC[C@@H](O)COc1ccc(-n2cc(C#C[C@H]3O[C@H](CO)[C@@H](O)[C@H](O)[C@@]3(O)C#Cc3cnn(C[C@H](O)CO)c3)cn2)cc1` [Compound A91], the EC90 was found to be 8 nM.

As for `OC[C@H]1O[C@H](C#Cc2cnn([C@H]3CC[C@H](O)CC3)c2)[C@](O)(C#Cc2ccc(F)cc2)[C@@H](O)[C@@H]1O` [Compound A76], the EC90 came out at 4 nM.

Regarding `OC[C@H]1O[C@H](C#Cc2cccc(-c3ccccc3)c2)[C@](O)(C#Cc2ccccc2)[C@@H](O)[C@@H]1O` [Compound A32], the EC90 came to 130 nM.

Turning to `O=c1ccc(C#C[C@H]2O[C@H](CO)[C@@H](O)[C@H](O)[C@@]2(O)C#Cc2ccccc2)cn1-c1ccccc1` [Compound A55], the EC90 was 64 nM.

As for `Cn1ncc(C#C[C@H]2O[C@H](CO)[C@@H](O)[C@H](O)[C@@]2(O)C#Cc2ccccc2)c1Cl` [Compound A35], the EC90 was found to be 520 nM.

For `OC[C@H]1O[C@H](C#Cc2cnn(C3CCCCC3O)c2)[C@](O)(C#Cc2ccccc2)[C@@H](O)[C@@H]1O` (some centres unmarked) [Compound A69], the EC90 stood at 16 nM.

With `OC[C@H]1O[C@H](C#Cc2ccccc2)[C@](O)(C#Cc2ccccc2)[C@@H](O)[C@@H]1O` [Compound A17], the EC90 turned out to be 130 nM.

For `OC[C@H]1O[C@H](C#Cc2cnn(-c3ccccc3Cl)c2)[C@](O)(C#CC2CC2)[C@@H](O)[C@@H]1O` [Compound A70], the EC90 was 8 nM.

On to `Cc1c(C#C[C@H]2O[C@H](CO)[C@@H](O)[C@H](O)[C@@]2(O)C#Cc2ccccc2)cnn1C` [Compound A36], for which the EC90 came out at 260 nM.

For the molecule `N#Cc1ccccc1-n1cc(C#C[C@H]2O[C@H](CO)[C@@H](O)[C@H](O)[C@@]2(O)C#Cc2ccccc2)cn1` [Compound A65], the EC90 was found to be 64 nM.

Take `COc1ccc(-n2cc(C#C[C@H]3O[C@H](CO)[C@@H](O)[C@H](O)[C@@]3(O)C#Cc3ccccc3)cn2)cc1` [Compound A81]: the EC90 was under 0.1 nM.

Regarding `COc1ccc(-n2cc(C#C[C@H]3O[C@H](CO)[C@@H](O)[C@H](O)[C@@]3(O)C#CC3CC3)cn2)cc1` [Compound A97], the EC90 was under 0.1 nM.

With `OC[C@H]1O[C@H](C#Cc2cnn(CC3CC3)c2)[C@](O)(C#Cc2ccccc2)[C@@H](O)[C@@H]1O` [Compound A42], the EC90 amounted to 4 nM.

With `Cn1cc(C#C[C@@]2(O)[C@@H](C#Cc3cnn(C4CCC(F)(F)CC4)c3)O[C@H](CO)[C@@H](O)[C@@H]2O)cn1` [Compound A83], the EC90 came out at 2 nM.

As to `Cn1cc(C#C[C@@]2(O)[C@@H](C#Cc3cnn(C4CCCCC4)c3)O[C@H](CO)[C@@H](O)[C@@H]2O)cn1` [Compound A85], the EC90 was 2 nM.

Consider `CCC(C)O[C@H]1O[C@H](CO)[C@@H](O)[C@H](O)[C@@]1(O)C#Cc1ccccc1` (some centres unmarked) [Compound A7], for which the EC90 was 260 nM.

As for `OC[C@H]1O[C@H](C#Cc2cnn([C@H]3CC[C@H](O)CC3)c2)[C@](O)(C#Cc2ccccc2)[C@@H](O)[C@@H]1O` [Compound A77], the EC90 turned out to be 2 nM.

Consider `OC[C@H]1O[C@H](C#Cc2cnn(-c3cccc(Cl)c3)c2)[C@](O)(C#Cc2ccccc2)[C@@H](O)[C@@H]1O` [Compound A66], for which the EC90 is 0.13 nM.

`Cn1cc(C#C[C@@]2(O)[C@@H](C#Cc3cnn(-c4cnn(C)c4)c3)O[C@H](CO)[C@@H](O)[C@@H]2O)cn1` [Compound A79]: the EC90 was 16 nM.

On to `OC[C@H]1O[C@H](C#Cc2cnn(-c3ccc(F)cc3)c2)[C@](O)(C#Cc2ccccc2)[C@@H](O)[C@@H]1O` [Compound A68], for which the EC90 is 8 nM.

Regarding `OC[C@H]1O[C@H](C#Cc2ccccc2)[C@](O)(C#Cc2cccc3ccccc23)[C@@H](O)[C@@H]1O` [Compound A24], the EC90 is 260 nM.

As for `OC[C@H]1O[C@H](C#Cc2cnn(-c3ccc(O[C@H]4CCOC4)cc3)c2)[C@](O)(C#CC2CC2)[C@@H](O)[C@@H]1O` [Compound A100], the EC90 is under 0.1 nM.

`OC[C@H]1O[C@H](C#Cc2cnn(C3CCCOC3)c2)[C@](O)(C#Cc2ccccc2)[C@@H](O)[C@@H]1O` (some centres unmarked) [Compound A51]: the EC90 was determined as 16 nM.

As for `OC[C@H]1O[C@H](C#Cc2cnn(-c3ccccc3)c2)[C@](O)(C#CC2CC2)[C@@H](O)[C@@H]1O` [Compound A88], the EC90 was 4 nM.

For the molecule `OC[C@H]1O[C@H](OC2CCCC2)[C@](O)(C#Cc2ccccc2)[C@@H](O)[C@@H]1O` [Compound A11], the EC90 is 520 nM.

Turning to `OC[C@H]1O[C@H](OC2CCCCC2)[C@](O)(C#Cc2ccccc2)[C@@H](O)[C@@H]1O` [Compound A12], the EC90 stood at 260 nM.

On to `OC[C@H]1O[C@H](C#Cc2cnn(-c3ccc(C4CC4)cc3)c2)[C@](O)(C#CC2CC2)[C@@H](O)[C@@H]1O` [Compound A105], for which the EC90 stood at 0.13 nM.

For the molecule `O=S(=O)(O)c1cccc(C#C[C@@]2(O)[C@@H](C#Cc3cnn(-c4ccc(OC[C@H](O)CO)cc4)c3)O[C@H](CO)[C@@H](O)[C@@H]2O)c1` [Compound A89], the EC90 worked out at 16 nM.
